Results taken from US7026339B2, “Inhibitors of HCV NS5B polymerase” (priority 2003, dated 2006).
pIC50: −log10 of the molar value.

tested on: HuH-7 replicon cells 5–15 and 9–13 (HCV replication); test: Inhibition of viral replication in HuH-7 replicon cells (HCV RNA / GAPDH RNA by multiplex RT-PCR); assay type: cell-based; details: Hepatitis C virus, 72 h; inhibiting 50% of replication; HuH-7 replicon cells, 3 days; read-out: IC50
How it was run: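 HCV and GAPDH RNA were measured by multiplex TaqMan RT-PCR (HCV 5′ untranslated region) after 3-day compound treatment at 37 °C, final 100 μM–1 μM in 1% DMSO. Cells were plated 24 h beforehand at 7×10^3/well. Read-out: HCV-to-GAPDH ratio expressed as percent control versus untreated cells.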

First: O=C(Cc1ccc(F)cc1)N/N=C/c1ccccc1OS(=O)(=O)c1ccc(C(F)(F)F)cc1 [Compound 8, 2-((E)-{2-[2-(4-fluorophenyl)acetyl]hydrazono}methyl)-phenyl 4-(trifluoromethyl)benzenesulfonate]
Second: CCOc1ccc(CC(=O)N/N=C/c2ccccc2OS(=O)(=O)c2ccc(C(F)(F)F)cc2)cc1 [Compound 67, 2-((E)-{2-[2-(4-ethoxyphenyl)acetyl]hydrazono}methyl)-phenyl 4-(trifluoromethyl)benzenesulfonate]
The pIC50 of the first is higher: greater than 5.30 for the first, 4.30 to 5.30 for the second.

`COc1cccc(CC(=O)N/N=C/c2ccccc2OS(=O)(=O)c2ccc(-n3cccn3)cc2)c1` [Compound 196, 2-((E)-{2-[2-(3-methoxyphenyl)acetyl]hydrazono}methyl)-phenyl 4-(1H-pyrazol-1-yl)benzenesulfonate] and `COc1cccc(CC(=O)N/N=C/c2ccccc2OS(=O)(=O)c2ccc(-c3cnco3)cc2)c1` [Compound 197, 2-((E)-{2-[2-(3-methoxyphenyl)acetyl]hydrazono}methyl)-phenyl 4-(1,3-oxazol-5-yl)benzenesulfonate] cannot be ordered by pIC50: greater than 5.30 for the first, greater than 5.30 for the second.

`COc1cccc(CC(=O)N/N=C/c2cccc(OC)c2OS(=O)(=O)c2ccc(C(F)(F)F)cc2)c1` [Compound 165, 2-methoxy-6-((E)-{[(3-methoxyphenyl)acetyl]hydrazono}methyl)-phenyl 4-(trifluoromethyl)-benzenesulfonate] and `COc1cccc(CC(=O)N/N=C/c2cccc(C)c2OS(=O)(=O)c2ccc(C(F)(F)F)cc2)c1` [Compound 168, 2-((E)-{[(3-methoxyphenyl)acetyl]hydrazono}methyl)-6-methylphenyl 4-(trifluoromethyl)benzenesulfonate] cannot be ordered by pIC50: greater than 5.30 for the first, greater than 5.30 for the second.

First: COc1cccc(CC(=O)N/N=C/c2ncccc2OS(=O)(=O)c2ccc(C)cc2)c1 [Compound 185, 2-((E)-{2-[2-(3-methoxyphenyl)acetyl]hydrazono}methyl)-pyridin-3-yl 4-methylbenzenesulfonate]
Second: CCOc1cccc(/C=N/NC(=O)Cc2cccc(OC)c2)c1OS(=O)(=O)c1ccc(C)cc1 [Compound 161, 2-ethoxy-6-((E)-{[(3-methoxyphenyl)acetyl]hydrazono}methyl)-phenyl 4-methylbenzenesulfonate]
The pIC50 of the first is higher: greater than 5.30 for the first, 4.30 to 5.30 for the second. The first is the more potent here.

Going from `Cc1cccnc1C(=O)N/N=C/c1ccccc1OS(=O)(=O)c1ccc(C(F)(F)F)cc1` [Compound 93, 2-((E)-{2-[(3-methylpyridin-2-yl)carbonyl]hydrazono}methyl)phenyl 4-(trifluoromethyl)benzenesulfonate] to `CSc1ncccc1C(=O)N/N=C/c1ccccc1OS(=O)(=O)c1ccc(C(F)(F)F)cc1` [Compound 83, 2-[(E)-(2-{[2-(methylthio)pyridin-3-yl]carbonyl}hydrazono)methyl]phenyl 4-(trifluoromethyl)benzenesulfonate], the pIC50 rises from less than 4.30 to greater than 5.30.

First: O=C(Cc1ccccc1)N/N=C/c1ccccc1OS(=O)(=O)c1cccc(F)c1 [Compound 113, 2-{(E)-[2-(2-phenylacetyl)hydrazono]methyl}phenyl 3-fluorobenzenesulfonate]
Second: O=C(Cc1ccccc1)N/N=C/c1ccccc1OS(=O)(=O)c1cccc(C(F)(F)F)c1 [Compound 122, 2-{(E)-[2-(2-phenylacetyl)hydrazono]methyl}phenyl 3-(trifluoromethyl)benzenesulfonate]
The pIC50 of the first is lower: less than 4.30 for the first, 4.30 to 5.30 for the second.

First: O=C(N/N=C/c1ccccc1OS(=O)(=O)c1ccc(C(F)(F)F)cc1)C1CCCCC1 [Compound 101, 2-{(E)-[2-(cyclohexylcarbonyl)hydrazono]methyl}phenyl 4-(trifluoromethyl)benzenesulfonate]
Second: O=C(CC1CCCO1)N/N=C/c1ccccc1OS(=O)(=O)c1ccc(C(F)(F)F)cc1 (centres unmarked) [Compound 95, 2-{(E)-[2-(2-tetrahydrofuran-2-ylacetyl)hydrazono]methyl}phenyl4-(trifluoromethyl)benzenesulfonate]
The pIC50 of the first is lower: 4.30 to 5.30 for the first, greater than 5.30 for the second. The second is the more potent here.

First: O=C(Cc1ccccc1)N/N=C/c1ccccc1OS(=O)(=O)c1ccc(Cl)cc1Cl [Compound 124, 2-{(E)-[2-(2-phenylacetyl)hydrazono]methyl}phenyl2,4-dichlorobenzenesulfonate]
Second: Cc1ccc(C)c(S(=O)(=O)Oc2ccccc2/C=N/NC(=O)Cc2ccccc2)c1 [Compound 130, 2-{(E)-[2-(2-phenylacetyl)hydrazono]methyl}phenyl2,5-dimethylbenzenesulfonate]
The pIC50 of the first is higher: greater than 5.30 for the first, less than 4.30 for the second.

`O=C(N/N=C/c1ccccc1OS(=O)(=O)c1ccc(C(F)(F)F)cc1)c1c(F)cccc1F` [Compound 102, 2-{(E)-[2-(2,6-difluorobenzoyl)hydrazono]methyl}phenyl4-(trifluoromethyl)benzenesulfonate] and `O=C(Cc1c(F)cccc1C(F)(F)F)N/N=C/c1ccccc1OS(=O)(=O)c1ccc(C(F)(F)F)cc1` [Compound 33, 2-[(E)-(2-{2-[2-fluoro-6-(trifluoromethyl)phenyl]acetyl}hydrazono)-methyl]phenyl 4-(trifluoromethyl)benzenesulfonate] cannot be ordered by pIC50: greater than 5.30 for the first, greater than 5.30 for the second.

`O=C(Cc1cc(F)c(F)cc1F)N/N=C/c1ccccc1OS(=O)(=O)c1ccc(C(F)(F)F)cc1` [Compound 17, 2-((E)-{2-[2-(2,4,5-trifluorophenyl)acetyl]hydrazono}methyl)-phenyl 4-(trifluoromethyl)benzenesulfonate] and `O=C(Cc1ccccc1Br)N/N=C/c1ccccc1OS(=O)(=O)c1ccc(C(F)(F)F)cc1` [Compound 40, 2-((E)-{2-[2-(2-bromophenyl)acetyl]hydrazono}methyl)-phenyl 4-(trifluoromethyl)benzenesulfonate] cannot be ordered by pIC50: greater than 5.30 for the first, greater than 5.30 for the second.

First: Cc1ccc(Oc2ccccc2/C=N/NC(=O)Cc2ccccc2)cc1 [Compound 234, N′-{(1E)-[2-(4-methylphenoxy)phenyl]methylene}-2-phenylacetohydrazide]
Second: COc1cccc(CC(=O)N/N=C/c2ccccc2CS(=O)(=O)c2ccc(C)cc2)c1 [Compound 233, 2-(3-methoxyphenyl)-N′-[(1 E)-(2-{[(4-methylphenyl)sulfonyl]methyl}phenyl)-methylene]acetohydrazide]
The pIC50 of the first is lower: less than 4.30 for the first, greater than 5.30 for the second.

`COc1cccc(OCC(=O)N/N=C/c2ccccc2OS(=O)(=O)c2ccc(C(F)(F)F)cc2)c1` [Compound 53, 2-((E)-{2-[2-(3-methoxyphenoxy)acetyl]hydrazono}methyl)-phenyl 4-(trifluoromethyl)benzenesulfonate] and `COc1cccc(CC(=O)N/N=C/c2ccccc2OS(=O)(=O)c2ccc(C(F)(F)F)cc2)c1` [Compound 146, 2-((E)-{2-[2-(3-methoxyphenyl)acetyl]hydrazono}methyl)-phenyl 4-(trifluoromethyl)benzenesulfonate] cannot be ordered by pIC50: greater than 5.30 for the first, greater than 5.30 for the second.

Compared with `O=C(Cc1cccc2occc12)N/N=C/c1ccccc1OS(=O)(=O)c1ccc(C(F)(F)F)cc1` [Compound 65, 2-((E)-{2-[2-(1-benzofuran-4-yl)acetyl]hydrazono}methyl)phenyl 4-(trifluoromethyl)benzenesulfonate], `O=C(Cc1ccccn1)N/N=C/c1ccccc1OS(=O)(=O)c1ccc(C(F)(F)F)cc1` [Compound 29, 2-{(E)-[2-(2-pyridin-2-ylacetyl)hydrazono]methyl}phenyl 4-(trifluoromethyl)benzenesulfonate] is higher in pIC50: 4.30 to 5.30 for the first, greater than 5.30 for the second.

`COc1ccc(CC(=O)N/N=C/c2ccccc2OS(=O)(=O)c2ccc(C(F)(F)F)cc2)c(OC)c1OC` [Compound 15, 2-((E)-{2-[2-(2,3,4-trimethoxyphenyl)acetyl]hydrazono}-methyl)phenyl 4-(trifluoromethyl)-benzenesulfonate] and `COc1cccc(OS(=O)(=O)c2ccc(C(F)(F)F)cc2)c1/C=N/NC(=O)Cc1cccc(Cl)c1` [Compound 174, 2-((E)-{[(3-chlorophenyl)acetyl]hydrazono}methyl)-3-methoxyphenyl 4-(trifluoromethyl)benzenesulfonate] cannot be ordered by pIC50: greater than 5.30 for the first, greater than 5.30 for the second.

`COc1cccc(CC(=O)N/N=C(\C)c2cc(F)ccc2OS(=O)(=O)c2ccc(C(F)(F)F)cc2)c1` [Compound 220, 4-fluoro-2-{(1E)-N-[(3-methoxyphenyl)acetyl]ethanehydrazonoyl}-phenyl 4-(trifluoromethyl)-benzenesulfonate] and `COc1cccc(CNc2cccc(CC(=O)N/N=C/c3ccccc3OS(=O)(=O)c3ccc(C(F)(F)F)cc3)c2)c1` [Compound 96, 2-{(E)-[2-(2-{3-[(3-methoxybenzyl)amino]phenyl}acetyl)hydrazono]methyl}phenyl 4-(trifluoromethyl)benzenesulfonate] cannot be ordered by pIC50: less than 4.30 for the first, less than 4.30 for the second.

`O=C(Cc1cc(C(F)(F)F)ccc1C(F)(F)F)N/N=C/c1ccccc1OS(=O)(=O)c1ccc(C(F)(F)F)cc1` [Compound 32, 2-[(E)-(2-{2-[2,5-bis(trifluoromethyl)phenyl]acetyl}hydrazono)-methyl]phenyl 4-(trifluoromethyl)benzenesulfonate] and `CN(c1ccccc1/C=N/NC(=O)Cc1ccc2c(c1)OCO2)S(=O)(=O)c1ccc(C(F)(F)F)cc1` [Compound 248, N-(2-{(E)-[(1,3-benzodioxol-5-ylacetyl)hydrazono]methyl}phenyl)-N-methyl-4-(trifluoromethyl)benzenesulfonamide] cannot be ordered by pIC50: greater than 5.30 for the first, greater than 5.30 for the second.

`O=C(Cc1ccc2c(c1)OCO2)NC1CC1c1ccccc1OS(=O)(=O)c1ccc(C(F)(F)F)cc1` (centres unmarked) [Compound 253, 2-(2-{[2-(1,3-benzodioxol-5-yl)acetyl]amino}cyclopropyl)phenyl 4-(trifluoromethyl)benzenesulfonate] and `O=C(NCc1ccccn1)Nc1ccccc1OS(=O)(=O)c1ccc(C(F)(F)F)cc1` [Compound 254, 2-({[(pyridin-2-ylmethyl)amino]carbonyl}amino)phenyl 4-(trifluoromethyl)benzenesulfonate] cannot be ordered by pIC50: less than 4.30 for the first, less than 4.30 for the second.

`COC(=O)CCc1ccc(S(=O)(=O)Oc2ccccc2/C=N/NC(=O)Cc2cccc(OC)c2)cc1` [Compound 224, methyl 3-(4-{[2-((E)-{[(3-methoxyphenyl)acetyl]hydrazono}methyl)-phenoxy]sulfonyl}phenyl)propanoate] was tested, and the pIC50 was less than 4.30.
